This is an account of results in patent US20200288710A1, “SUBSTITUTED SULPHONAMIDES FOR CONTROLLING ANIMAL PESTS” (BAYER CROPSCIENCE AKTIENGESELLSCHAFT, priority 2016, published 2020).

Where two headings read alike, the source gives them in different places.

A short description of data set [1]: log P by HPLC on reversed-phase column (EEC Directive 79/831 Annex V.A8). In kind it is physicochemical. Conditions: reversed-phase HPLC column (C18). The protocol: The log P values were determined according to EEC Directive 79/831 Annex V.A8 by HPLC (highperformance liquid chromatography) on a reversed-phase column (C18). Temperature 43° C. The calibration is effected with unbranched alkan-2-ones (having 3 to 16 carbon atoms), for which the log P values are known. The determination of the M^+ by LC-MS in the acidic range was carried out at pH 2.7 using the mobile phases 0.1% aqueous formic acid and acetonitrile (contains 0.1% formic acid); linear gradient from 10% acetonitrile to 95% acetonitrile, instrument: Agilent 1100 LC system, Agilent MSD system, HTS PAL. The determination of the M^+ by LC-MS in the neutral range was carried out at pH 7.8 using the mobile phases 0.001 molar aqueous ammonium bicarbonate solution and acetonitrile; linear gradient from 10% acetonitrile to 95% acetonitrile. The log P values for the acidic range (as log P [a]) and/or for the neutral range (as log P [n]) were stated in the tables and preparation examples.

The subject of the next data set is Tetranychus urticae. Kind of data set: Tetranychus urticae spray test, OP-resistant. In kind it is in vivo. The following applies: foliar, 144 h, bean leaf discs, after 6 days, read-out: efficacy. The protocol:
Tetranychus urticae—Spray Test, OP-Resistant
To produce a suitable preparation of active compound, 1 part by weight of active compound is dissolved using the specified parts by weight of solvent and made up with water containing an emulsifier concentration of 1000 ppm until the desired concentration is attained. To produce further test concentrations, the formulation is diluted with emulsifier-containing water.
Discs of bean leaves (Phaseolus vulgaris) infested with all stages of the greenhouse red spider mite (Tetranychus urticae) are sprayed with an active compound preparation of the desired concentration.
After 6 days, the efficacy in % is determined. 100% means that all the spider mites have been killed; 0% means that no spider mites have been killed.

Data set [2] relates to Myzus persicae. In words: Myzus persicae spray test (Chinese cabbage leaf discs). Conditions: foliar, 120 h, after 5-6 days, read-out: efficacy. In kind it is in vivo. Summed up: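 Formulated compound in acetone/dimethylformamide, diluted in water with 1000 ppm emulsifier, was sprayed onto Brassica pekinensis leaf discs carrying mixed-stage Myzus persicae. Percent mortality was read 5-6 days later (0% = no aphids killed, 100% = all killed).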

In another data set the test system is Meloidogyne incognita. In words: Meloidogyne incognita test. In kind it is in vivo. Conditions: 336 h, lettuce, after 14 days, read-out: nematicidal efficacy (formation of galls). Summed up: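 Gall formation on lettuce roots scored after 14 days: 0% means gall count equals untreated control, 100% means none. Sand vessels held the compound (acetone concentrate diluted in water), southern root-knot nematode egg/larvae suspension and lettuce seeds.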

For the next data set, the system named is Phaedon cochleariae. Kind of data set: Phaedon cochleariae spray test. In kind it is in vivo. The following applies: foliar, 168 h, Chinese cabbage leaf discs, larvae, after 7 days, read-out: efficacy. Summed up:
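Mortality of beetle larvae scored at day 7, expressed as % (0% none killed, 100% all). Formulation: compound in solvent, made up and further diluted with emulsifier-containing water (1000 ppm emulsifier).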

The subject of data set [3] is Myzus persicae. In words: Myzus persicae oral test. In kind it is in vivo. The following applies: 120 h, oral uptake, after 5 days, read-out: efficacy. Summed up:
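Aphids of mixed ages imbibe, through parafilm, compound solution (acetone stock, water-diluted) combined with sugar-supplemented IPL41 medium to 200 μl. Efficacy read at day 5 as percent killed, 0% meaning no deaths.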

For another data set, the system named is Lucilia cuprina. In words: Lucilia cuprina test. Conditions: 48 h, L1 larvae, after 2 days, read-out: efficacy (kill in %). In kind it is in vivo. The procedure:
Lucilia cuprina Test Solvent: dimethyl sulphoxide To produce a suitable preparation of active compound, 10 mg of active compound are mixed with 0.5 ml of dimethyl sulphoxide, and the concentrate is diluted with water to the desired concentration. About 20 L1 larvae of the Australian sheep blowfly (Lucilia cuprina) are transferred into a test vessel containing minced horsemeat and the active compound preparation of the desired concentration. After 2 days, the kill in % is determined. 100% means that all the larvae have been killed; 0% means that no larvae have been killed.

Where [4] appears, read: acidic range, pH 2.7, HPLC C18, 43° C., read-out: log P (acidic).
[5] abbreviates: neutral range, pH 7.8, HPLC C18, 43° C., read-out: log P (neutral).

For the compound `COc1cc(C(=O)O)nn1-c1ccccc1Cl` [1-(2-chlorophenyl)-5-methoxy-1H-pyrazole-3-carboxylic acid], the chromatographic logP in data set [1] (setting [4]) turned out to be 1.63.
As for `Cc1c(C(=O)O)nc(-c2c(F)cccc2F)n1C` [2-(2,6-difluorophenyl)-1,5-dimethyl-1H-imidazole-4-carboxylic acid], the chromatographic logP in data set [1] (setting [5]) was 2.
Regarding `Cn1cc(C(=O)O)nc1-c1c(F)cccc1F` [2-(2,6-difluorophenyl)-1-methyl-1H-imidazole-4-carboxylic acid], the chromatographic logP in data set [1] (setting [5]) was 2.3.
Consider `Cn1c(C(=O)O)cnc1-c1c(F)cccc1F` [2-(2,6-difluorophenyl)-1-methyl-1H-imidazole-5-carboxylic acid], for which the chromatographic logP in data set [1] (setting [4]) turned out to be 0.46.
Consider `CCc1[nH]c(-c2c(F)cccc2F)nc1C(=O)O` [2-(2,6-difluorophenyl)-5-ethyl-1H-imidazole-4-carboxylic acid], for which the chromatographic logP in data set [1] (setting [5]) stood at 0.45.
Consider `Cc1ccccc1S(=O)(=O)NC(=O)c1nc(-c2ccccc2Cl)n(C)c1Cl` [5-chloro-2-(2-chlorophenyl)-1-methyl-N-[(2-methylphenyl)sulphonyl]-1 Himidazole-4-carboxamide], for which the chromatographic logP in data set [1] (setting [4]) amounted to 3.17.
For `CCOC(=O)c1nc(Br)n(C)c1C` [Ethyl 2-Bromo-1,5-Dimethyl-1H-Imidazole-4-Carboxylate], in data set [1] (setting [5]), the chromatographic logP was determined as 1.69.
As to `Cn1cc(C(=O)NS(=O)(=O)c2ccc(Cl)cc2)nc1-c1c(F)cccc1F` [Example 46], the pest or weed control at 500 g/ha in the data set with Tetranychus urticae and in the data set on Myzus persicae [2] was 90% throughout. Besides, the pest or weed control at 20 ppm with Meloidogyne incognita stood at 100%.
On to `CCn1cc(C(=O)NS(=O)(=O)CC)nc1-c1ccccc1Cl` [Example 78], for which the pest or weed control at 500 g/ha with Tetranychus urticae and in the data set with Myzus persicae [2] was 90% in each case. For the same compound, the pest or weed control at 20 ppm in the data set on Meloidogyne incognita was 90%.
For `CCS(=O)(=O)NC(=O)c1cn(C)c(-c2c(Cl)cccc2Cl)n1` [Example 82], the pest or weed control at 500 g/ha in the data set on Tetranychus urticae and with Myzus persicae [2] was 90% throughout. The pest or weed control at 20 ppm in the data set on Meloidogyne incognita is 90%.
With `COc1ccc(Cl)c(S(=O)(=O)NC(=O)c2cn(C)c(-c3c(Cl)cccc3Cl)n2)c1` [Example 101], the pest or weed control at 500 g/ha in the data set on Phaedon cochleariae is 100%; in the data set on Tetranychus urticae, 90%; with Myzus persicae [2] it was 90%. Besides, the pest or weed control at 20 ppm was 100% with Myzus persicae [3] and 90% in the data set on Meloidogyne incognita. Further, in the data set with Lucilia cuprina, the pest or weed control at 100 ppm was found to be 100%.
With `COc1ccc(Cl)c(S(=O)(=O)NC(=O)c2nc(-c3ccccc3Cl)n(C)c2C)c1` [Example 104], the pest or weed control at 500 g/ha with Phaedon cochleariae amounted to 100%; in the data set on Tetranychus urticae it was 90%. The values for the pest or weed control at 20 ppm in the data set with Myzus persicae [3] and in the data set on Meloidogyne incognita were 100% and 90%, respectively.
Regarding `Cn1cc(C(=O)NS(=O)(=O)c2cccc(Cl)c2Cl)nc1-c1c(F)cccc1F` [Example 173], the results for the pest or weed control at 500 g/ha in the data set on Tetranychus urticae and in the data set with Myzus persicae [2] were 90% and 100%, respectively. For the same compound, the pest or weed control at 20 ppm in the data set on Myzus persicae [3] and with Meloidogyne incognita was 100% in each case.
`Cc1ccsc1S(=O)(=O)NC(=O)c1cn(C)c(-c2ccccc2Cl)n1` [Example 212]: the values for the pest or weed control at 500 g/ha in the data set with Tetranychus urticae and with Myzus persicae [2] were 90% and 100%, respectively. The pest or weed control at 20 ppm in the data set on Myzus persicae [3] amounted to 100%; in the data set on Meloidogyne incognita it was 90%.
Regarding `Cc1cc(S(=O)(=O)NC(=O)c2cn(C)c(-c3ccccc3Cl)n2)c(C)s1` [Example 217], the pest or weed control at 500 g/ha turned out to be 83% in the data set on Phaedon cochleariae, 100% with Tetranychus urticae and 90% in the data set on Myzus persicae [2]. For the same compound, the pest or weed control at 20 ppm with Myzus persicae [3] turned out to be 100%; in the data set with Meloidogyne incognita, 90%.
For `Cn1cc(C(=O)NS(=O)(=O)c2cccc(Cl)c2F)nc1-c1c(F)cccc1F` [Example 315], the pest or weed control at 500 g/ha with Tetranychus urticae was determined as 90%; with Myzus persicae [2], 100%. Also, the pest or weed control at 20 ppm with Myzus persicae [3] and in the data set on Meloidogyne incognita was 100% throughout.
On to `Cc1c(F)cccc1S(=O)(=O)NC(=O)c1cn(C)c(-c2c(F)cccc2F)n1` [Example 318], for which the figures for the pest or weed control at 500 g/ha in the data set on Phaedon cochleariae, with Tetranychus urticae and with Myzus persicae [2] were 100%, 90% and 100%, respectively. In addition, the results for the pest or weed control at 20 ppm with Myzus persicae [3] and with Meloidogyne incognita were 100% and 90%, respectively.
Turning to `Cc1ccc(S(=O)(=O)NC(=O)c2cn(C)c(-c3c(F)cccc3F)n2)s1` [Example 351], in the data set on Tetranychus urticae, the pest or weed control at 500 g/ha was determined as 90%. In addition, the pest or weed control at 100 g/ha in the data set with Myzus persicae [2] (100 g/ha) worked out at 90%. Also, the pest or weed control at 20 ppm in the data set with Meloidogyne incognita was determined as 90%.
As to `Cn1cc(C(=O)NS(=O)(=O)c2ccccc2Cl)nc1-c1cnccc1Cl` [Example 495], in the data set on Tetranychus urticae, the pest or weed control at 500 g/ha came out at 90%. Moreover, the pest or weed control at 20 ppm in the data set with Meloidogyne incognita was determined as 90%.
Turning to `Cn1cc(C(=O)NS(=O)(=O)c2c(Cl)cccc2Cl)nc1-c1cccc(Cl)c1Cl` [Example 568], the pest or weed control at 500 g/ha was 83% in the data set on Phaedon cochleariae, 90% in the data set on Tetranychus urticae and 100% with Myzus persicae [2]. The pest or weed control at 20 ppm with Myzus persicae [3] turned out to be 100%; with Meloidogyne incognita, 90%.
`COc1ccc(C)c(S(=O)(=O)NC(=O)c2cn(C)c(-c3ncccc3Cl)n2)c1` [Example 582]: the pest or weed control at 500 g/ha amounted to 83% in the data set on Phaedon cochleariae, 90% in the data set on Tetranychus urticae and 100% in the data set with Myzus persicae [2]. For the same compound, the pest or weed control at 4 ppm in the data set with Myzus persicae [3] (4 ppm) was 100%. In addition, in the data set on Meloidogyne incognita, the pest or weed control at 20 ppm amounted to 90%.
For the compound `CCOC(=O)c1ncn(C)c1C` [ethyl 1,5-dimethyl-1H-imidazole-4-carboxylate], the chromatographic logP in data set [1] (setting [5]) came to 0.85.
For the compound `CCOC(=O)c1cc(O)n(-c2ccccc2Cl)n1` [ethyl 1-(2-chlorophenyl)-5-hydroxy-1H-pyrazole-3-carboxylate], in data set [1] (setting [4]), the chromatographic logP is 1.75.
Take `CCOC(=O)c1cc(OC)n(-c2ccccc2Cl)n1` [ethyl 1-(2-chlorophenyl)-5-methoxy-1H-pyrazole-3-carboxylate]: the chromatographic logP in data set [1] (setting [4]) came out at 2.61.
As to `CCOC(=O)c1nc(-c2c(F)cccc2F)n(C)c1C` [ethyl 2-(2,6-difluorophenyl)-1,5-dimethyl-1H-imidazole-4-carboxylate], the chromatographic logP in data set [1] (setting [5]) came out at 2.
Turning to `CCOC(=O)c1nc(-c2c(F)cccc2F)[nH]c1CC` [ethyl 2-(2,6-difluorophenyl)-5-ethyl-1H-imidazole-4-carboxylate], in data set [1] (setting [4]), the chromatographic logP worked out at 1.73.
The same measure, in the same setting: for `Cn1cnc(C(=O)OC(C)(C)C)c1` [tert-butyl 1-methyl-1H-imidazole-4-carboxylate] the value was 0.63.
In the case of `Cn1cncc1C(=O)OC(C)(C)C` [tert-butyl 1-methyl-1H-imidazole-5-carboxylate], the chromatographic logP in data set [1] (setting [5]) worked out at 1.71.
In the case of `Cn1cc(C(=O)OC(C)(C)C)nc1-c1c(F)cccc1F` [tert-butyl 2-(2,6-difluorophenyl)-1-methyl-1H-imidazole-4-carboxylate], the chromatographic logP in data set [1] (setting [5]) is 2.3.
Regarding `Cn1c(C(=O)OC(C)(C)C)cnc1-c1c(F)cccc1F` [tert-butyl 2-(2,6-difluorophenyl)-1-methyl-1H-imidazole-5-carboxylate], in data set [1] (setting [5]), the chromatographic logP is 3.
Consider `Cn1cc(C(=O)OC(C)(C)C)nc1Br` [tert-butyl 2-bromo-1-methyl-1H-imidazole-4-carboxylate], for which, in data set [1] (setting [4]), the chromatographic logP turned out to be 2.41.
`Cn1c(C(=O)OC(C)(C)C)cnc1Br` [tert-butyl 2-bromo-1-methyl-1H-imidazole-5-carboxylate]: in data set [1] (setting [5]), the chromatographic logP stood at 2.54.
